Common to all, as to format: cell-based, human
The subject of one data set is primary monocytes. The data set can be described thus: Monocyte to macrophage differentiation after siRNA transfection, surface markers by FACS. The procedure: (A) knockdown of VentX expression in primary monocytes by RNA interference. Monocytes were transfected with siRNA against GFP or VentX through electroporation. VentX mRNA levels were determined by real time PCR at 3 days after transfection (left); VentX protein level was determined by western blotting at 4 days after transfection (right). (B) Effects of VentX knockdown on macrophage morphogenesis during M-CSF induced differentiation. Monocytes were transfected with either siGFP or siVentX and subsequently exposed to 100 ng/mL M-CSF. […] Magnification of photographs, ×200. Note: a portion of cells lost their original morphology during Wright-Giemsa staining procedure. (C) Effects of VentX knockdown on macrophage surface expression of CD71. […] Filled blue histogram represents the isotope control staining; red histogram represents monocytes transfected with siGFP; green histogram represents monocytes transfected with siVentX. (D) Bar graphs show mean+SD of 6 different experiments in (C). Paired t test was used to reveal the statistical significance. **p<0.01.
(§1) (A) Left panel: Flow cytometry analysis of indicated surface markers in monocytes transfected with siGFP or siVentX, respectively; right panel: bar graphs show the mean+SD of at least three separate experiments. *p<0.05; **p<0.01. (B) Effects of VentX knockdown on macrophage viability. Monocytes were transfected with either siGFP or siVentX and subsequently exposed to 100 ng/mL M-CSF for 3 days. Cells were then harvested and stained with PI and Annexin V and analyzed by flow cytometry. (C) Effects of VentX knockdown on phagocytosis. Monocytes were transfected with siGFP or siVentX. Phagocytosis assays were carried out as described in materials and methods. […]
Surface expression of CD71 was determined by FACS analysis at 4 days after siRNA transfection. […]
Peripheral blood mononuclear cells (PBMC) from healthy adult donors at Children's Hospital Boston were isolated by Ficoll density gradient centrifugation. […] The purity of freshly isolated CD14^+ monocytes was more than 95% as analyzed by flow cytometry. […]
Background: In flow cytometry, cells or beads pass a laser one at a time.

Data set [1] deals with cultured monocytes/macrophages. The data set is described as follows: Phagocytosis assay with pHrodo S. aureus BioParticles. As to the method: as §1
Macrophages were generated through incubation of freshly isolated monocytes with 100 ng/mL M-CSF for 4 days. […] (A) Surface staining of CD40, CD80, CD86 and HLA-DR and intracellular staining of TNF-α and IL1-β were analyzed by flow cytometry. (B) Secreted TNF-α, IL1-β and IL12p70 from culture supernatants were determined with ELISA kits. (C) Reactive oxygen species (ROS) from siGFP or siVentX transfected macrophages were analyzed with fluorescence microscope (left) and flow cytometry (middle). […]
Phagocytosis of cultured monocytes/macrophages or U937 cells were performed with pHrodo™ S. aureus BioParticles® conjugates from Invitrogen. […] After extensive washings, cellular phagocytosis of bioparticles was monitored by flow cytometry. […]

In data set [2] the test system is allogenic naive CD4+ T cells. The data set is described as follows: Mixed lymphocyte reaction. Conditions: irradiated transfected macrophages (FIG. 8F). The procedure: Macrophages were generated through incubation of freshly isolated monocytes with 100 ng/mL M-CSF for 4 days. These macrophages were then transfected with siGFP or siVentX, respectively, and further cultured in RPMI 1640 medium for additional 3 days. Thereafter, cells were exposed to 1 μg/mL LPS plus 20 ng/mL γ-IFN for 6 hours. (A) Surface staining of CD40, CD80, CD86 and HLA-DR and intracellular staining of TNF-α and IL1-β were analyzed by flow cytometry. (B) Secreted TNF-α, IL1-β and IL12p70 from culture supernatants were determined with ELISA kits. (C) Reactive oxygen species (ROS) from siGFP or siVentX transfected macrophages were analyzed with fluorescence microscope (left) and flow cytometry (middle). […] (D) Nitrate level from siGFP and siVentX transfected macrophages. Data represent mean+SD of three different experiments. (E) Phagocytosis of siGFP and siVentX transfected macrophage. Red histogram represents transfection with siGFP; green histogram represents transfection with siVentX. Left panel: cells were incubated on ice; right panel: cells were incubated at 37° C. (F) Effects of VentX knockdown on mixed lymphocyte reaction. Irradiated macrophages that had been transfected with siGFP or siVentX were utilized to stimulate allogenic naïve CD4 T cells proliferation. The proliferation rates were represented by counts per minute (CPM). […]

As to “siVentX: VentX siRNA, forward 5′-UUCAGAAUCGCCGCAUGAAACACAAACGG-3′ (SEQ ID NO:4), reverse SEQ ID NO:5 (antisense CCGUUUGUGUUUCAUGCGGCGAUUCUGAA; listed as RNA, chemistry not given here)”, the “macrophage differentiation by GM-CSF or IL3” value in the data set with primary monocytes (monocytes, 100 ng/mL GM-CSF or IL3, CD71 at 4 days (FIG. 15)) was “blocked macrophage differentiation”. Also, in the data set with primary monocytes (transfected monocytes, M-CSF, compared with siGFP transfected control cells (FIG. 3A)), the “expression of macrophage phenotypic markers CD64, CD40, CD86, CD11b and CD11c” value is “significantly down-regulated”. The “phagocytotic capability of transfected macrophages” value in data set [1] (macrophages (FIG. 8E)) is “much weaker”. Further, the “phagocytotic activity of transfected monocytes” value in data set [1] (monocytes, in comparison with the control (FIG. 3C)) is reported as “reduced phagocytotic activity”. In addition, the “stimulation of allogeneic T cells proliferation” value in data set [2] is “less potent”.
